We go through 28 compounds from ChEMBL document CHEMBL5724558, “Image-based profiling of drug vulnerabilities in CRC organoids” (2024).

Holding throughout (format): functional, Homo sapiens
Common to all, as to set-up: dose or concentration left out as unconfirmed

Test [1] has as its system Colon cancer organoid. The test is described as follows: Image-based profiling of donated chemical probes and chemogenomic kinase set in O21 CRC organoid. Image analysis is performed on the sum area metric, and the data were normalized to the DMSO control. After imaging the organoid viability is measured using the OneGloEX Luciferase Assay System. The normalized viability data and sum area are reported.

Test [2] concerns Colon cancer organoid. As to the kind of experiment: Image-based profiling of donated chemical probes and chemogenomic kinase set in O09 CRC organoid. Image analysis is performed on the sum area metric, and the data were normalized to the DMSO control. After imaging the organoid viability is measured using the OneGloEX Luciferase Assay System. The normalized viability data and sum area are reported.

Test [3] concerns Colon cancer organoid. As to the kind of experiment: Image-based profiling of donated chemical probes and chemogenomic kinase set in O06 CRC organoid. Image analysis is performed on the sum area metric, and the data were normalized to the DMSO control. After imaging the organoid viability is measured using the OneGloEX Luciferase Assay System. The normalized viability data and sum area are reported.

Molecules are shown by their SMILES. Values joined by “and” are separate entries in the source; they are usually repeats but may differ in a detail not shown here. Identical values can stand only once.

Consider `CC[C@H](CO)Nc1nc(NCc2ccccc2)c2ncn(C(C)C)c2n1` [SELICICLIB], for which the “Cell Viability” value in test [1] (Replication number 1) is 79.2225% and 95.8885%; in test [1] (Replication number 2), 112.922% and 92.6952%; in test [2] (Replication number 1) it was 133.303% and 96.4937%; in test [2] (Replication number 2) it was 129.12% and 84.4947%; in test [3] (Replication number 1) it was 146.934% and 137.321%; in test [3] (Replication number 2) it was 92.4206% and 95.8355%.
Take `COc1cccc(CNC(=O)c2nc3scc(CN(C)Cc4ccccc4)c3c(=O)[nH]2)c1` [T-26f]: the “Cell Viability” value in test [1] (Replication number 1) is 98.5646% and 83.8292%; in test [1] (Replication number 2) it was 88.8685% and 86.2245%; in test [2] (Replication number 1), 195.868% and 94.1333%; in test [2] (Replication number 2), 147.324% and 100.767%; in test [3] (Replication number 1), 86.0581% and 83.8408%; in test [3] (Replication number 2), 86.5317% and 78.1759%.
As for `CCOC(=O)CCNc1cc(N2CCc3ccccc3CC2)nc(-c2ccccn2)n1`, the “Cell Viability” value in test [1] (Replication number 1) is 97.5264% and 129.915%; in test [1] (Replication number 2), 84.038% and 100.955%; in test [2] (Replication number 1), 78.8625% and 87.8671%; in test [2] (Replication number 2), 139.531% and 105.195%; in test [3] (Replication number 1), 148.439% and 134.336%; in test [3] (Replication number 2), 153.418% and 113.038%.
On to `COc1ccc2c(c1)O[C@H](c1ccc(OC)c(OC)c1)C[C@@H]2NC(=O)C1(c2ccc3c(c2)OC(F)(F)O3)CC1` [A-1596584], for which the “Cell Viability” value in test [1] (Replication number 1) is 106.5% and 117.861%; in test [1] (Replication number 2) it was 103.505% and 102.481%; in test [2] (Replication number 1), 121.374% and 104.664%; in test [2] (Replication number 2) it was 90.4474% and 94.7661%; in test [3] (Replication number 1), 59.7741% and 88.9069%; in test [3] (Replication number 2) it was 99.5304% and 111.725%.
In the case of `COc1ncc(F)cc1CNc1ccc(Cc2c[nH]c3ncc(C)cc23)c(F)n1` [PLX-5622], the “Cell Viability” value was 106.139% and 77.4913% in test [1] (Replication number 1); 117.508% and 96.7254% in test [1] (Replication number 2); 193.371% and 111.454% in test [2] (Replication number 1); 159.434% and 112.03% in test [2] (Replication number 2); 113.45% and 123.522% in test [3] (Replication number 1); 100.072% and 108.792% in test [3] (Replication number 2).
Take `Cn1cc(CNCC2CCN(c3ncc(C(=O)NO)cn3)CC2)c2ccccc21` [QUISINOSTAT]: the “Cell Viability” value is 11.6805% and 13.0062% in test [2] (Replication number 1); 13.8403% and 11.4602% in test [2] (Replication number 2).
With `CC[C@@H]1C(=O)N(C)c2cnc(Nc3ccc(C(=O)NC4CCN(C)CC4)cc3OC)nc2N1C1CCCC1` [BI-2536], the “Cell Viability” value in test [1] (Replication number 1) was 25.994% and 61.8815%; in test [1] (Replication number 2) it was 31.9179% and 66.7866%; in test [2] (Replication number 1) it was 16.4106% and 42.6367%; in test [2] (Replication number 2), 20.1367% and 38.0631%.
Turning to `CCN(CCO)CCCOc1ccc2c(Nc3cc(CC(=O)Nc4cccc(F)c4)[nH]n3)ncnc2c1` [DEFOSBARASERTIB], the “Cell Viability” value in test [1] (Replication number 1) is 70.1574% and 72.5399%; in test [1] (Replication number 2), 94.5203% and 86.7079%; in test [2] (Replication number 1) it was 28.5576% and 26.4792%; in test [2] (Replication number 2), 25.188% and 21.7278%.
As for `CC(=O)NCC(=O)N1[C@@H]2CC[C@H]1c1ccc(Nc3ncc(C(F)(F)F)c(NC4CCC4)n3)cc12` [PF-03814735], the “Cell Viability” value is 48.6382% and 56.6718% in test [1] (Replication number 1); 62.4502% and 65.7393% in test [1] (Replication number 2); 33.7645% and 14.7244% in test [2] (Replication number 2).
Consider `CN1CCN(Cc2ccc(Nc3ncc(Cl)c(Nc4ccccc4S(=O)(=O)N(C)C)n3)cc2)CC1` [DUBERMATINIB], for which the “Cell Viability” value is 4.849% and 7.106% in test [2] (Replication number 1); 5.761% and 10.5011% in test [2] (Replication number 2); 1.098% and 2.141% in test [3] (Replication number 1); 1% and 3.825% in test [3] (Replication number 2).
On to `Cc1cc(C)cc(C(=O)NOCCCCCC(=O)NO)c1`, for which the “Cell Viability” value is 190.206% and 106.401% in test [1] (Replication number 1); 186.718% and 91.8258% in test [1] (Replication number 2); 14.9423% and 44.698% in test [3] (Replication number 1); 14.9026% and 40.6267% in test [3] (Replication number 2).
Regarding `COc1ccc(Oc2cc(NCCC(F)(F)F)c3ncc(-c4ccc(C(=O)NC5CC5)c(C)c4)n3n2)c(F)c1F` [BAY-1217389], the “Cell Viability” value in test [1] (Replication number 1) was 50.4052% and 66.3415%; in test [1] (Replication number 2) it was 55.0801% and 82.9075%; in test [2] (Replication number 1), 16.1792% and 31.9152%; in test [2] (Replication number 2) it was 23.535% and 27.535%.
`CCn1cc(-c2ccnc3[nH]c(-c4cccc(CN(C)C)c4)cc23)c(-c2ccc(NC(=O)N(C)C)cc2)n1` [GSK-1070916]: the “Cell Viability” value was 76.6328% and 71.3589% in test [1] (Replication number 1); 81.5265% and 81.1803% in test [1] (Replication number 2); 22.2316% and 23.9614% in test [2] (Replication number 1); 25.9157% and 31.5843% in test [2] (Replication number 2).
Consider `COc1cc2ncn(-c3cc(OCc4ccccc4C(F)(F)F)c(C(N)=O)s3)c2cc1OC` [GW843682X], for which the “Cell Viability” value is 21.0036% and 58.1504% in test [1] (Replication number 2); 19.8463% and 25.1831% in test [2] (Replication number 1); 19.142% and 23.8097% in test [2] (Replication number 2).
Take `N#CC1(c2ccccn2)CCN(Cc2cc(C(=O)O)c(=O)n3ccccc23)CC1` [MSD-M1PAM]: the “Cell Viability” value in test [1] (Replication number 1) was 89.7237% and 93.8523%; in test [1] (Replication number 2) it was 106.363% and 84.1264%; in test [2] (Replication number 1) it was 40.5981% and 75.2157%; in test [2] (Replication number 2), 57.8261% and 79.5004%.
With `COc1cc(Nc2ccnc3ccc(Br)cc23)cc(OC)c1OC`, the “Cell Viability” value in test [2] (Replication number 1) was 33.1055% and 56.4229%; in test [2] (Replication number 2), 29.2651% and 46.0292%; in test [3] (Replication number 2) it was 5.197% and 15.2001%.
Regarding `CCS(=O)(=O)Nc1ccc(Oc2ccc(F)cc2F)c(-c2cn(C)c(=O)c3[nH]ccc23)c1` [MIVEBRESIB], the “Cell Viability” value in test [1] (Replication number 1) was 39.7622% and 88.1777%; in test [1] (Replication number 2), 36.307% and 74.642%; in test [2] (Replication number 1), 15.7549% and 20.0077%; in test [2] (Replication number 2), 18.5163% and 23.3766%.
With `CCN1CCN(c2ccc(Nc3cc(N(C)C(=O)Nc4c(Cl)c(OC)cc(OC)c4Cl)ncn3)cc2)CC1` [INFIGRATINIB], the “Cell Viability” value in test [1] (Replication number 1) was 70.5365% and 84.7387%; in test [1] (Replication number 2), 76.3419% and 87.5135%; in test [2] (Replication number 1), 23.1721% and 22.7147%; in test [2] (Replication number 2), 19.8415% and 27.805%.
Regarding `CCCCNc1ncc(-c2ccc(CN3CCOCC3)cn2)c(N[C@H]2CC[C@H](O)CC2)n1`, the “Cell Viability” value in test [1] (Replication number 1) was 74.2042% and 87.3045%; in test [1] (Replication number 2) it was 78.7125% and 74.949%; in test [2] (Replication number 1), 13.1667% and 26.0723%; in test [2] (Replication number 2), 15.6613% and 21.4116%.
With `CC(C)[C@H](C(=O)Nc1ccc(C(=O)NO)cc1)c1ccccc1` [AR-42], the “Cell Viability” value was 145.989% and 67.015% in test [1] (Replication number 1); 137.871% and 83.2339% in test [1] (Replication number 2); 8.903% and 23.7546% in test [3] (Replication number 2).
Take `CCCCN(CCCC)C(=O)CN1C[C@@H](c2cc(OC)c3c(c2)OCO3)[C@H](C(=O)O)[C@H]1CC(C)(C)CCC.Cl`: the “Cell Viability” value in test [1] (Replication number 1) was 63.1584% and 74.5149%; in test [1] (Replication number 2), 47.1745% and 81.1225%; in test [2] (Replication number 1) it was 42.4098% and 26.0419%; in test [2] (Replication number 2), 31.2719% and 16.5316%.
Consider `C=CC(=O)N1CCC([C@@H]2CCNc3c(C(N)=O)c(-c4ccc(Oc5ccccc5)cc4)nn32)CC1` [ZANUBRUTINIB], for which the “Cell Viability” value in test [1] (Replication number 1) was 87.382% and 84.1812%; in test [1] (Replication number 2), 88.1261% and 101.331%; in test [2] (Replication number 1) it was 34.0987% and 32.6632%; in test [2] (Replication number 2), 34.2694% and 25.3214%.
Turning to `CN(C)CC#Cc1ccc(OCCCc2sc(N3CCc4cccc(C(=O)Nc5nc6ccccc6s5)c4C3)nc2C(=O)O)c(F)c1` [A-1155463], the “Cell Viability” value is 47.3935% and 102.037% in test [1] (Replication number 1); 50.6709% and 99.4222% in test [1] (Replication number 2); 0.4141% and 9.206% in test [3] (Replication number 1); 0.1987% and 7.04% in test [3] (Replication number 2).
Turning to `CCc1cccc(CC)c1NC(=O)c1nn(C)c2c1CCc1cnc(Nc3ccc(C(=O)NC4CCN(C)CC4)cc3OC(F)(F)F)nc1-2`, the “Cell Viability” value in test [1] (Replication number 1) is 41.8512% and 75.8188%; in test [1] (Replication number 2), 49.725% and 74.2713%; in test [2] (Replication number 1), 78.2687% and 77.2947%; in test [2] (Replication number 2), 115.279% and 90.9735%.
For the compound `C[C@@H](Oc1cc(-n2cnc3ccc(CN4CCN(C)CC4)cc32)sc1C(N)=O)c1ccccc1C(F)(F)F` [GSK-461364], the “Cell Viability” value in test [1] (Replication number 1) is 31.4353% and 81.9512%; in test [2] (Replication number 1), 31.4361% and 40.8914%; in test [2] (Replication number 2) it was 27.3036% and 34.2838%.
With `Cn1cc(-c2[nH]c3cc(NC(=O)[C@H](N)C4CCCCC4)cc4c3c2C=NNC4=O)cn1`, the “Cell Viability” value in test [2] (Replication number 1) is 70.4366% and 51.3636%; in test [2] (Replication number 2) it was 57.165% and 41.3025%; in test [3] (Replication number 1), 9.563% and 27.3752%.
On to `COc1cc(Nc2ncc3c(n2)-c2ccc(Cl)cc2C(c2c(F)cccc2OC)=NC3)ccc1C(=O)O` [ALISERTIB], for which the “Cell Viability” value in test [1] (Replication number 1) is 99.741% and 113.91%; in test [1] (Replication number 2) it was 76.2077% and 81.6074%; in test [2] (Replication number 1), 29.1632% and 19.7233%; in test [2] (Replication number 2), 34.5212% and 21.703%.
Take `COc1c(OCCCN2CCOCC2)ccc2c1N=C(NC(=O)c1cnc(N)nc1)N1CCN=C21` [COPANLISIB]: the “Cell Viability” value is 12.735% and 9.949% in test [2] (Replication number 1); 17.4919% and 14.9013% in test [2] (Replication number 2); 2.47% and 7.411% in test [3] (Replication number 1); 1.939% and 5.676% in test [3] (Replication number 2).
